The conditions of data set [1]: cited from earlier work.
Data set [2] has as its system PCP site of the NMDA receptor. As to conditions: (S)- versus (R)-ketamine; cited from earlier work.
A short description of data set [3]: Subject's earlier response to sedative/analgesic drugs (medical history). As to conditions: child, around adenoid removal.
Data set [4] has as its system Childhood-Onset Bipolar Disorder With FOH. Put plainly: Ketamine treatment of childhood-onset bipolar disorder with FOH (single-subject case report). As to conditions: 2 intranasal puffs of ketamine. Format: in vivo, human. From the text:
Subject is a child referred by their parents for psychiatric care to address their intense and often violent rages.
Subject has had episodic rages that have escalated in frequency and intensity since their adoption at 18 months. They have always experienced extreme separation anxiety but their aggression has shifted from themself toward their parents since starting school. The abuse towards their parents has included hitting, kicking, biting, and propelling objects. Parents came for consultation for fear that Subject will become more dangerous as they age.
Subject is currently on seroquel—225 mg (50 mg time release mornings, 25 mg afternoon, 150 mg time release evenings), lithium 600 mg (300 mg mornings and evenings), and 2 intranasal puffs of ketamine.

For data set [5] the following is noted: cited from earlier work. This is another data set of the same source.

The structures appear in SMILES notation.

As to `CN[C@@]1(c2ccccc2Cl)CCCCC1=O` [(R)-ketamine], in data set [1] (in vivo), the hallucinogenic effect entry is reported as “hallucinogenic”.

With `CN[C@]1(c2ccccc2Cl)CCCCC1=O` [(S)-ketamine], in data set [2], the “affinity for the PCP site of the NMDA receptor relative to (R)-ketamine” value is reported as “about four”. Besides, in data set [1] (comparison of enantiomers), the induction of drowsiness result is on record as “more strongly than the (R) enantiomer”.

Consider `Cc1ncc2n1-c1ccc(Cl)cc1C(c1ccccc1F)=NC2` [Versid], for which the “response of subject to drug (medical history)” value in data set [3] was “extreme hyperactivity instead of relaxation”.

Consider `CNC1(c2ccccc2Cl)CCCCC1=O` (stereo not drawn) [ketamine, [(2-2-chlorophenyl)-2-(methylamino)-cyclohexanone]], for which, in data set [4], the coordination entry is “improved coordination”, the coping with transitions entry is recorded as “able to cope with transitions without the aid of transitional rituals”, the “dependence on transitional objects” value is reported as “decreased to the rare occasion” and the hallucinations entry was “complete remission”. Further, in data set [4], the hoarding behavior result is reported as “ceased”, the motion sickness result is listed as “no more motion sickness”, the night sweats result is listed as “no longer complains of night sweats” and the physical well-being result is on record as “much improvement”. In data set [4], the sleep entry is recorded as “improved greatly”; the speech entry is “improved with much greater regularity in coherence, tempo, volume, and clarity”; the thirst on awakening entry is given as “no longer awakens extremely thirsty”. In addition, in data set [4] (except the last few days of the ketamine cycle), the delusions entry is “subsided”. The aggression entry in data set [4] (returns on occasion the few days prior to next administration) is recorded as “nearly disappeared”. The dreams entry in data set [4] (subject's report) is on record as ““good dreams” have replaced their “bad dreams.””. The “overall response after the use of ketamine” value in data set [4] (child, with seroquel 225 mg and lithium 600 mg) was “quite notable changes in body temperature, speech, levels of fear, sleep, attention, aggression, and psychosis/delusions”. Moreover, the “dose at which mild adverse effects (dysphoria and/or hallucinations, "ketamine dreams") can occur” value in data set [5] (dose of ketamine) is “greater than 50 mg”. Besides, in data set [5] (total dose intranasally), the “dose usually required for mild adverse effects (dysphoria and/or hallucinations)” value was “greater than 100 mg”.
